Reference: ChEMBL document CHEMBL1133337, “Synthesis and transfection properties of novel non-toxic monocationic lipids. Variation of lipid anchor, spacer and head group structure” (2000)

Legend:
Assay type in all cases: functional, Cercopithecidae
COS-7 [1] = assay: Transfection efficiency when the compound/DNA charge ratio was 7:1
COS-7 [2] = assay: Transfection efficiency when the compound/DNA charge ratio was 9:1
COS-7 [3] = assay: Transfection efficiency when the compound/DNA charge ratio was 5:1
COS-7 [4] = assay: Transfection efficiency when the compound/DNA charge ratio was 13:1
COS-7 [5] = assay: Transfection efficiency when the compound/DNA charge ratio was 11:1
COS-7 [6] = assay: Transfection efficiency when the compound/DNA charge ratio was 3:1
COS-7 [7] = assay: Transfection efficiency when the compound/DNA charge ratio was 1:1
COS-7 [8] = assay: Transfection efficiency when the compound/DNA charge ratio was 15:1

Compound | Transfection efficiency (COS-7 [1]) | Transfection efficiency (COS-7 [2]) | Transfection efficiency (COS-7 [3]) | Transfection efficiency (COS-7 [4]) | Transfection efficiency (COS-7 [5]) | Transfection efficiency (COS-7 [6]) | Transfection efficiency (COS-7 [7]) | Transfection efficiency (COS-7 [8])
CC(C)CCCC(C)[C@H]1CC[C@H]2C3CC=C4C[C@@H](OC(=O)C[N+](C)(C)CCO)CCC4(C)[C@H]3CCC12C (stereo partly specified) | 26500 RLU (ug of protein)-1 | 29600 RLU (ug of protein)-1 | 18500 RLU (ug of protein)-1 | 30000 RLU (ug of protein)-1 | 31100 RLU (ug of protein)-1 | 4800 RLU (ug of protein)-1 | 4300 RLU (ug of protein)-1 | 31000 RLU (ug of protein)-1
CC(C)CCCC(C)[C@H]1CC[C@H]2C3CC=C4C[C@@H](OC(=O)OCC[N+](C)(C)C)CCC4(C)[C@H]3CCC12C (stereo partly specified) | 45400 RLU (ug of protein)-1 | 11400 RLU (ug of protein)-1 | 77200 RLU (ug of protein)-1 | 2200 RLU (ug of protein)-1 | 3600 RLU (ug of protein)-1 | 97200 RLU (ug of protein)-1 | 48500 RLU (ug of protein)-1 | 2000 RLU (ug of protein)-1
CC(C)CCCC(C)[C@H]1CC[C@H]2C3CC=C4C[C@@H](OC(=O)CCC(=O)OCCN(C)C)CCC4(C)[C@H]3CCC12C (stereo partly specified) | 10600 RLU (ug of protein)-1 | 9600 RLU (ug of protein)-1 | 12200 RLU (ug of protein)-1 | 7200 RLU (ug of protein)-1 | 7500 RLU (ug of protein)-1 | 27000 RLU (ug of protein)-1 | 14000 RLU (ug of protein)-1 | 6700 RLU (ug of protein)-1
CCCCCCCCCCCCCCOCC(COC(=O)C[N+](C)(C)C)OCCCCCCCCCCCCCC (stereo unspecified) | 15100 RLU (ug of protein)-1 | 17700 RLU (ug of protein)-1 | 10000 RLU (ug of protein)-1 | 29400 RLU (ug of protein)-1 | 18700 RLU (ug of protein)-1 | 4100 RLU (ug of protein)-1 | 4200 RLU (ug of protein)-1 | 31400 RLU (ug of protein)-1
CC(C)CCCC(C)[C@H]1CC[C@H]2C3CC=C4C[C@@H](OC(=O)CCC(=O)OCCCN(C)C)CCC4(C)[C@H]3CCC12C (stereo partly specified) | 8900 RLU (ug of protein)-1 | 9100 RLU (ug of protein)-1 | 9200 RLU (ug of protein)-1 | 6100 RLU (ug of protein)-1 | 6000 RLU (ug of protein)-1 | 9200 RLU (ug of protein)-1 | 8000 RLU (ug of protein)-1 | 4700 RLU (ug of protein)-1
CC(C)CCCC(C)[C@H]1CC[C@H]2C3CC=C4C[C@@H](OC(=O)OCCN(C)C)CCC4(C)[C@H]3CCC12C (stereo partly specified) | 41800 RLU (ug of protein)-1 | 24800 RLU (ug of protein)-1 | 76600 RLU (ug of protein)-1 | 10900 RLU (ug of protein)-1 | 15200 RLU (ug of protein)-1 | 93000 RLU (ug of protein)-1 | 40500 RLU (ug of protein)-1 | 7400 RLU (ug of protein)-1
CC(C)CCCC(C)[C@H]1CC[C@H]2C3CC=C4C[C@@H](OC(=O)CCC(=O)NCCCN(C)C)CCC4(C)[C@H]3CCC12C (stereo partly specified) | 14800 RLU (ug of protein)-1 | 9800 RLU (ug of protein)-1 | 22500 RLU (ug of protein)-1 | 7900 RLU (ug of protein)-1 | 8800 RLU (ug of protein)-1 | 37300 RLU (ug of protein)-1 | 12800 RLU (ug of protein)-1 | 8000 RLU (ug of protein)-1
CC(C)CCCC(C)[C@H]1CC[C@H]2C3CC=C4C[C@@H](OC(=O)OCC[N+](C)(C)CCO)CCC4(C)[C@H]3CCC12C (stereo partly specified) | 10500 RLU (ug of protein)-1 | 8700 RLU (ug of protein)-1 | 25500 RLU (ug of protein)-1 | 5000 RLU (ug of protein)-1 | 8100 RLU (ug of protein)-1 | 83200 RLU (ug of protein)-1 | 17300 RLU (ug of protein)-1 | 5300 RLU (ug of protein)-1
CC(C)CCCC(C)[C@H]1CC[C@H]2C3CC=C4C[C@@H](OC(=O)C[N+](C)(C)C)CCC4(C)[C@H]3CCC12C (stereo partly specified) | 5300 RLU (ug of protein)-1 | 4300 RLU (ug of protein)-1 | 20100 RLU (ug of protein)-1 | 2000 RLU (ug of protein)-1 | 2800 RLU (ug of protein)-1 | 86600 RLU (ug of protein)-1 | 17000 RLU (ug of protein)-1 | 1700 RLU (ug of protein)-1
CC(C)CCCC(C)[C@H]1CC[C@H]2C3CC=C4C[C@@H](OC(=O)CCC(=O)NCCN(C)C)CCC4(C)[C@H]3CCC12C (stereo partly specified) | 108900 RLU (ug of protein)-1 | 98100 RLU (ug of protein)-1 | 94100 RLU (ug of protein)-1 | 54300 RLU (ug of protein)-1 | 75400 RLU (ug of protein)-1 | 41100 RLU (ug of protein)-1 | 17000 RLU (ug of protein)-1 | 36500 RLU (ug of protein)-1
CC(C)CCCC(C)[C@H]1CC[C@H]2C3CC=C4C[C@@H](OC(=O)CN(C)C)CCC4(C)[C@H]3CCC12C (stereo partly specified) | 1700 RLU (ug of protein)-1 | 2000 RLU (ug of protein)-1 | 1500 RLU (ug of protein)-1 | 2100 RLU (ug of protein)-1 | 3100 RLU (ug of protein)-1 | 4000 RLU (ug of protein)-1 | 6900 RLU (ug of protein)-1 | 3400 RLU (ug of protein)-1
CCCCCCCCCCCCCCOCC(COC(=O)CN(C)C)OCCCCCCCCCCCCCC (stereo unspecified) | 600 RLU (ug of protein)-1 | 1700 RLU (ug of protein)-1 | 5500 RLU (ug of protein)-1 | 2500 RLU (ug of protein)-1 | 1000 RLU (ug of protein)-1 | 8000 RLU (ug of protein)-1 | 3300 RLU (ug of protein)-1 | 600 RLU (ug of protein)-1
